In brackets after ≈: the same amount, converted by molar mass. Read-outs that look alike come from different tables or passages of the source.
Columns and labels:
RVFV MP-12 = experiment: microbe, parasite or virus in culture; format: cell-based, Rift Valley fever virus; details: for EC50: read-out: Estimated EC50
C. neoformans = experiment: microbe, parasite or virus in culture; format: cell-based; details: for MIC80: Cryptococcus neoformans, read-out: C. neoformans (MIC80, μM)
Human RNase H1 = molecular target: T1, Human RNase H1 (Homo sapiens, UniProt O60930); experiment: biochemical
T1 construct: made in house; host or cells: E. coli
T1 sequence (O60930 1-286): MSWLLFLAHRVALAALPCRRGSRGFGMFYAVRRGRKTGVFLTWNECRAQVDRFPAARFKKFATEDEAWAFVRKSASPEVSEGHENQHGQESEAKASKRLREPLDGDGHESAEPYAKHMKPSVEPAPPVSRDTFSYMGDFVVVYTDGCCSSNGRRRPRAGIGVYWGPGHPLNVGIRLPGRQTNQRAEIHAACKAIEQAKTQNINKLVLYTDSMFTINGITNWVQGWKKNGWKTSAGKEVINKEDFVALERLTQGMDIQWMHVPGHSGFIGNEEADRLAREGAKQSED

RVFV strain MP-12 [1] = experiment: microbe, parasite or virus in culture; format: cell-based, Rift Valley fever virus
Staphylo-coccus spp. = experiment: organism not typed; format: cell-based
in vitro = details: African green monkey
RVFV strain MP-12 [2] = experiment: microbe, parasite or virus in culture; format: cell-based, Rift Valley fever virus; details: Rift Valley fever virus, A549, 24 h, read-out: A549 EC50
ZIKV = experiment: microbe, parasite or virus in culture; format: cell-based, Zika virus; details: Zika virus, Vero C1008, 48 h, read-out: ZIKV EC50
LACV = experiment: microbe, parasite or virus in culture; format: cell-based, La Crosse virus; details: La Crosse virus, Vero C1008, 24 h, read-out: LACV EC50
[3] = read-out: Human RNase H1 (IC50)
[4] = Rift Valley fever virus, Vero, 24 h
[5] = Rift Valley fever virus, Vero, read-out: Vero EC50

Compound | EC50 (RVFV MP-12) | C. neoformans (MIC80, μM) (C. neoformans) | CC50 (Vero cells) | IC50 (Human RNase H1; [3]) | also measured
CCOC(=O)c1sc(NC(=O)CSc2nnc(Cc3ccccc3)o2)c(C#N)c1C [Compound 6] | > 120 µM | – | – | – | –
O=c1c(O)c(-c2ccc(O)c(O)c2)oc2cc(O)c(O)c(O)c12 [Compound 7, Quercetagetin] | – | – | – | – | EC50 (RVFV MP-12; Rift Valley fever virus, Vero): > 120 µM
NC(=O)c1c(N)sc2c1CCCCC2 [Compound 22] | > 120 µM | – | – | – | –
CC(C)c1cccc(=O)c(O)c1 [Compound 47, β-thujaplicin, reference compound] | – | – | – | – | EC50 (RVFV MP-12; Rift Valley fever virus, Vero): > 120 µM
CC(C)c1ccc(O)c(=O)cc1 [Compound 48, γ -thujaplicin, reference compound] | – | – | – | – | EC50 (RVFV MP-12; Rift Valley fever virus, Vero): > 120 µM
Cc1cc(O)c(=O)c(O)cc1C(=O)c1ccccc1 [Compound 111] | – | 36 µM | > 120 µM | 48 µM | EC50 (RVFV strain MP-12 [1]; read-out: RVFV (EC50)): 19 µM
Cc1cc(O)c(=O)c(O)cc1-c1ccccc1 [Compound 113] | – | 24 µM | > 120 µM | 174 µM | EC50 (RVFV strain MP-12 [1]; read-out: RVFV (EC50)): 10.3 µM
Cc1cc(O)c(=O)c(O)cc1C(=O)c1ccc(-c2ccccc2)cc1 [Compound 118] | – | 15 µM | > 120 µM | > 500 µM | EC50 (RVFV strain MP-12 [1]; read-out: RVFV (EC50)): 11 µM
Cc1cc(O)c(=O)c(O)cc1C(=O)C1CCCCC1 [Compound 120] | – | 12 µM | > 120 µM | 81 µM | EC50 (RVFV strain MP-12 [1]; read-out: RVFV (EC50)): 15.6 µM
O=C(O)CC(=O)CC(=O)c1cccs1 [Compound 129] | > 120 µM | – | – | – | –
O=C1c2ccccc2C(=O)N1O [Compound 138] | > 120 µM | – | – | – | –
COC(=O)c1c(C)cc(O)c(=O)c(O)c1O [Compound 196] | – | – | > 120 µM | 408 µM | CC50 (HepDES19): 6 µM; EC50 (RVFV strain MP-12 [1]; read-out: RVFV (EC50)): 23.9 µM; Staphylo-coccus spp. (MIC80, μM) (Staphylo-coccus spp.): 67 µM
CC1=CC(O)N(O)C(O)=C1C(C)=Nc1ccccc1N (centres unmarked) [Compound 208] | 14 µM | 30 µM | > 120 µM | 194 µM | CC50 (HepDES19): 14.4 µM; EC50 (RVFV strain MP-12 [1]; read-out: RVFV (EC50)): > 120 µM
Cc1ccc(O)c(=O)c(O)c1 [Compound 210] | 8 µM | 15 µM | > 120 µM | 85 µM | EC50 (RVFV strain MP-12 [1]; read-out: EC50): 11.8 µM
Cc1cc(O)c(=O)c(O)cc1-c1cccc(-c2cccc3ccccc23)c1 [Compound 234] | 19 µM | – | > 120 µM | – | –
Cc1cc(O)c(=O)c(O)cc1C(=O)c1ccc(-c2ccncc2)cc1 [Compound 260] | – | 50 µM | > 120 µM | 277 µM | CC50 (HepDES19): 45 µM; EC50 (RVFV strain MP-12 [1]; read-out: RVFV (EC50)): 31.6 µM
O=c1c(O)ccc(-c2ccco2)cc1O [Compound 265] | – | 11 µM | > 120 µM | 57 µM | EC50 (RVFV strain MP-12 [1]; read-out: RVFV (EC50)): 15.4 µM; Staphylo-coccus spp. (MIC80, μM) (Staphylo-coccus spp.): 30 µM
Cc1cc(O)c(=O)c(O)cc1S(=O)(=O)c1ccccc1 [Compound 336] | – | – | – | – | MIC80 (C. neoformans): 50 µM (≈ 14.6 µg/mL); CC50 (Vero cells; African green monkey): 65.8 µM; CC50 (in vitro; CC50): 70 µM; IC50 (Human RNase H1): 85 µM; EC50 (RVFV strain MP-12 [1]; [4]): 9 µM; EC50 (RVFV MP-12; Rift Valley fever virus, Vero): 3 µM
Cc1ccc(/C=C/C(=O)c2ccccc(=O)c2O)cc1 [Compound 340] | 3 µM | 49 µM | 70 µM | > 500 µM | CC50 (HepDES19): 18.7 µM; EC50 (RVFV strain MP-12 [1]; read-out: EC50): 27.3 µM
O=C(/C=C/c1cccc(Br)c1)c1ccccc(=O)c1O [Compound 341] | – | – | – | – | MIC80 (C. neoformans): 24 µM (≈ 7.95 µg/mL); CC50 (in vitro; CC50): > 120 µM; IC50 (Human RNase H1): > 500 µM; EC50 (RVFV strain MP-12 [1]; [4]): 25.2 µM; EC50 (RVFV MP-12; Rift Valley fever virus, Vero): 2 µM; MIC80 (Staphylo-coccus spp.; read-out: Staphylo-coccus spp. (MIC80, μM)): 44 µM (≈ 14.6 µg/mL)
COc1ccc(/C=C/C(=O)c2ccccc(=O)c2O)cc1 [Compound 342] | 2 µM | 24 µM | > 120 µM | > 500 µM | CC50 (HepDES19): 30.4 µM; EC50 (RVFV strain MP-12 [1]; read-out: EC50): 55.5 µM

Compound | EC50 (RVFV MP-12) | C. neoformans (MIC80, μM) (C. neoformans) | CC50 (Vero cells) | IC50 (Human RNase H1; [3]) | also measured
CSc1cccc(O)c(=O)c1O [Compound 385] | – | 24 µM | > 120 µM | 176 µM | CC50 (HepDES19): 100 µM; EC50 (RVFV strain MP-12 [1]; read-out: RVFV (EC50)): 25.2 µM
CC(=Nc1ccccc1F)c1c(C)cc(=O)n(O)c1O [Compound 516] | 19 µM | – | > 120 µM | – | –
COc1ccc(CON=C(C)c2c[nH]c(=O)[nH]c2=O)cc1 [Compound 522] | > 1 µM | – | 1 µM | – | –
Cc1cc(O)c(=O)c(O)cc1C(=O)NCc1ccc(-c2ccccc2)cc1 [Compound 539] | 10 µM | 4.5 µM | – | 105 µM | CC50 (HepDES19): 3.6 µM; EC50 (RVFV strain MP-12 [1]; read-out: EC50): 18.6 µM; Staphylo-coccus spp. (MIC80, μM) (Staphylo-coccus spp.): 38 µM
C/C(=N\c1ccc(Cl)c(Cl)c1)c1c(C)cc(O)n(O)c1=O [Compound 670] | – | – | – | – | EC50 (RVFV strain MP-12 [2]): 15.3 µM; MIC80 (C. neoformans): 69 µM (≈ 22.6 µg/mL); EC50 (ZIKV): > 120 µM; CC50 (Vero cells; African green monkey): > 120 µM; CC50 (in vitro; CC50): > 120 µM; EC50 (LACV): > 120 µM; IC50 (Human RNase H1): 356 µM; EC50 (RVFV strain MP-12 [1]; [4]): 14 µM; EC50 (RVFV strain MP-12 [1]; [5]): 14 µM; EC50 (RVFV MP-12; Rift Valley fever virus, Vero): 10 µM
COc1ccc(Cl)cc1C(=O)Sc1cccccc1=O [Compound 681] | > 2 µM | – | 2 µM | – | –
CCCCCCS(=O)(=O)c1ccc(S(=O)(=O)CCCCCC)c(O)c(=O)c1O [Compound 700] | – | – | – | – | CC50 (in vitro; Estimated CC50): > 120 µM; Estimated EC50 (RVFV MP-12): inactive; EC50 (RVFV MP-12; Rift Valley fever virus, Vero): > 120 µM
O=c1c(O)c(SCc2ccccc2)ccc(SCc2ccccc2)c1O [Compound 703] | 9 µM | 7.0 µM | – | 61 µM | CC50 (HepDES19): 8.2 µM; EC50 (RVFV strain MP-12 [1]; read-out: EC50): 16.1 µM; Staphylo-coccus spp. (MIC80, μM) (Staphylo-coccus spp.): 13 µM
Cc1cc(O)c(=O)c(O)cc1C(=O)NCCc1ccccc1 [Compound 710] | 17 µM | – | > 120 µM | – | –
Cc1cc(O)c(=O)c(O)cc1C(=O)Nc1ccc(F)cc1F [Compound 711] | 17 µM | – | > 120 µM | – | –
Cc1cc(O)c(=O)c(O)cc1C(=O)N1CCSC1 [Compound 712] | > 20 µM | – | 20 µM | – | –
Cc1cc(O)c(=O)c(O)cc1C(=O)Nc1cccc(Cc2ccccc2)c1 [Compound 799] | 17 µM | – | 62 µM | – | –
Cc1ccc(CNC(=O)c2cc(O)c(=O)c(O)cc2C)c(C)c1 [Compound 809] | 17 µM | – | 64 µM | – | –
Cc1cc(O)c(=O)c(O)cc1C(=O)Nc1cccc(OCc2ccccc2)c1 [Compound 836] | 13 µM | – | > 120 µM | – | –
Cc1ccc(Sc2cccc(O)c(=O)c2O)cc1 [Compound 838] | 8 µM | 1.0 µM | – | 100 µM | CC50 (HepDES19): 18.6 µM; EC50 (RVFV strain MP-12 [1]; read-out: EC50): 12.7 µM
Cc1cc(O)c(=O)c(O)cc1C(=O)N[C@@H](CCC(=O)OC(C)(C)C)C(=O)OC(C)(C)C [Compound 867] | – | – | – | – | EC50 (RVFV strain MP-12 [2]): 33 µM; MIC80 (C. neoformans): 9 µM (≈ 3.94 µg/mL); EC50 (ZIKV): > 120 µM; CC50 (in vitro; CC50): > 120 µM; CC50 (in vitro; Vero CC50): > 120 µM; EC50 (LACV): > 120 µM; EC50 (RVFV strain MP-12 [1]; [4]): 8.7 µM; EC50 (RVFV strain MP-12 [1]; [5]): 8.7 µM; EC50 (RVFV MP-12; Rift Valley fever virus, Vero): 6.66 µM
Cc1cc(O)c(=O)c(O)cc1C(=O)N1CCN(C(=O)C2COc3ccccc3O2)CC1 (centres unmarked) [Compound 876] | – | – | > 120 µM | – | –
Cc1cc(O)c(=O)c(O)cc1C(=O)N1CCN(c2ccc([N+](=O)[O-])c3nonc23)CC1 [Compound 920] | 19 µM | – | > 120 µM | – | –
Cc1cc(O)c(=O)c(O)cc1C(=O)NCc1ccc(N2CCCC2)cc1 [Compound 1019] | 19 µM | – | > 120 µM | – | –
CCCCNC(=O)c1cc(O)c(=O)c(O)cc1C [Compound 1039] | – | – | – | – | EC50 (RVFV strain MP-12 [2]): 15.5 µM; MIC80 (C. neoformans): 12 µM (≈ 3.02 µg/mL); EC50 (ZIKV): > 120 µM; CC50 (Vero cells; African green monkey): > 120 µM; CC50 (in vitro; Vero CC50): > 120 µM; EC50 (LACV): > 120 µM; IC50 (Human RNase H1): 209 µM; EC50 (RVFV strain MP-12 [1]; [4]): 8.9 µM; EC50 (RVFV strain MP-12 [1]; [5]): 8.9 µM; EC50 (RVFV MP-12; Rift Valley fever virus, Vero): 6 µM
